Source: US20250154146A1, “PROTEIN DEGRADERS DEVELOPED ON BASIS OF BCL-2 FAMILY PROTEIN LIGAND COMPOUNDS AND USE THEREOF” (ShanghaiTech University, priority 2022, published 2025)

How the values were obtained:
Type in all cases: cell-based
Molt-4 cells = assay: Thiazolyl blue cell proliferation assay in Molt-4 cells; details: Homo sapiens, Molt-4 acute lymphocytic leukemia cells, 72 hours, read-out: IC50 (nM) for inhibiting the proliferation of Molt-4 cells
From the text: (§1) The cell lines RS4;11 (human acute lymphocytic leukemia cells), Molt-4 cells (human acute lymphocytic leukemia cells), MV4;11 (human myeloid monocytic leukemia cells), and Light II cells were commercially available or purchased from ATCC (American Type Culture Collection) and routinely cultured according to instructions.
3) Study on the proliferation inhibition effects induced by the compounds of the present disclosure designed based on ABT199/263 against BCL-XL-dependent Molt-4 cells:
(§2) The specific steps were as follows: Molt-4 cells were seeded at a density of 2×10^4 cells/well in 180 μL of serum-containing RPMI 1640 culture medium. DT2216 and the compounds of the present disclosure were added to the cell suspension at corresponding concentration gradients. DT2216 and DMSO were used as positive and vehicle control, respectively. The positive control and negative control were treated with the same treatment method as the compounds of the present disclosure. After treating the cells with the compounds of the present disclosure for 72 hours, thiazole blue solution (5 mg/mL) was added at 20 μL/well to the cell suspension, followed by incubation for 3 hours at 37° C. in an incubator with 5% CO2. Then, triple solution (0.1 g/mL SDS, 5% isopropyl alcohol, 10 mM hydrochloric acid) was added, followed by incubation for 4-6 hours at 37° C. in an incubator with 5% CO2. After confirming that all the crystal violets were dissolved under inverted biological microscopy, the absorbance was measured at 490 nm using an Epoch microplate reader (Biotek Corporation). The growth inhibition of the compounds of the present disclosure on the cells was plotted by GraphPad Prism 8 software, and the IC50 values of the compounds of the present disclosure were calculated therefrom. The experiment had 3 replicates per group and was repeated at least three times.

MV4;11 cells = assay: Thiazolyl blue cell proliferation assay in MV4;11 cells; details: Homo sapiens, MV4;11 myeloid monocytic leukemia cells, 48 hours, read-out: IC50 (nM) for inhibiting the proliferation of MV4;11 cells
From the text: as §1
2) Study on the proliferation inhibition effects induced by the compounds of the present disclosure designed based on ABT199/263 against BCL-XL-dependent MV4;11 cells:
as §2, with “MV4;11” for “Molt-4”, “90” for “180”, “IMDM” for “RPMI 1640”, “48” for “72”, “10 µL/well” for “20 μL/well”

RS4;11 cells = assay: Thiazolyl blue cell proliferation assay in RS4;11 cells; details: Homo sapiens, RS4;11 acute lymphoblastic leukemia cells, 48 hours, read-out: IC50 (nM) for inhibiting the proliferation of RS4;11 cells
From the text: as §1
1) Study on the proliferation inhibition effects induced by the compounds of the present disclosure designed based on ABT199/263 against BCL-XL-dependent RS4;11 cells:
as §2, with “RS4;11” for “Molt-4”, “3×10^4” for “2×10^4”, “90” for “180”, “RPMI-1640” for “RPMI 1640”, “48” for “72”, “10” for “20”
We conducted dose-dependent experiments on the designed and synthesized compounds of the present disclosure in RS4;11 cells, which are highly sensitive to BCL-XL inhibitors. The cells were treated with 7 different concentrations (starting at the highest concentration of 1000 nM or 100 nM; 10-fold serial dilutions) of the compounds for 48 hours, and then tested using the thiazolyl blue cell proliferation assay.

Row | IC50 (Molt-4 cells) | IC50 (MV4;11 cells) | IC50 (RS4;11 cells) | SMILES
1 | < 10 nM | < 20 nM | < 20 nM | CC1(C)CCC(CN2CCN(c3ccc(C(=O)NS(=O)(=O)c4ccc(NC[C@H]5CC[C@H](N6CCN(Cc7ccc8c(c7)C(=O)N(C7CCC(=O)NC7=O)C8=O)CC6)CC5)c([N+](=O)[O-])c4)c(Oc4cnc5[nH]ccc5c4)c3)CC2)=C(c2ccc(Cl)cc2)C1 (relative stereo) [BCL-03188, 2-((1H-pyrrolo[2,3-b]pyridin-5-yl)oxy)-4-(4-((4′-chloro-5,5-dimethyl-3,4,5,6-tetrahydro-[1,1′-biphenyl]-2-yl)methyl)piperazin-1-yl)-N-((4-((((trans)-4-(4-((2-(2,6-dioxopiperidin-3-yl)-1,3-dioxoisoindolin-5-yl)methyl)piperazin-1-yl)cyclohexyl)methyl)amino)-3-nitrophenyl)sulfonyl)benzamide]
2 | < 10 nM |  |  | C[C@H]1CN([C@H]2CC[C@H](CNc3ccc(S(=O)(=O)NC(=O)c4ccc(N5CCN(CC6=C(c7ccc(Cl)cc7)CC(C)(C)CC6)CC5)cc4Oc4cnc5[nH]ccc5c4)cc3[N+](=O)[O-])CC2)CCN1Cc1cc(Br)c2c(c1)C(=O)N(C1CCC(=O)NC1=O)C2 (stereo partly drawn) [BCL-03170, 2-((1H-pyrrolo[2,3-b]pyridin-5-yl)oxy)-N-((4-((((trans)-4-((3S)-4-((7-bromo-2-(2,6-dioxopiperidin-3-yl)-3-oxoisoindolin-5-yl)methyl)-3-methylpiperazin-1-yl)cyclohexyl)methyl)amino)-3-nitrophenyl)sulfonyl)-4-(4-((4′-chloro-5,5-dimethyl-3,4,5,6-tetrahydro-[1,1′-biphenyl]-2-yl)methyl)piperazin-1-yl)benzamide]
3 | < 10 nM |  |  | C[C@@H]1CN([C@H]2CC[C@@H](CNc3ccc(S(=O)(=O)NC(=O)c4ccc(N5CCN(CC6=C(c7ccc(Cl)cc7)CC(C)(C)CC6)CC5)cc4Oc4cnc5[nH]ccc5c4)cc3[N+](=O)[O-])CC2)CCN1Cc1cc(Br)c2c(c1)C(=O)N(C1CCC(=O)NC1=O)C2 (stereo partly drawn) [BCL-03171, 2-((1H-pyrrolo[2,3-b]pyridin-5-yl)oxy)-N-((4-((((cis)-4-((3R)-4-((7-bromo-2-(2,6-dioxopiperidin-3-yl)-3-oxoisoindolin-5-yl)methyl)-3-methylpiperazin-1-yl)cyclohexyl)methyl)amino)-3-nitrophenyl)sulfonyl)-4-(4-((4′-chloro-5,5-dimethyl-3,4,5,6-tetrahydro-[1,1′-biphenyl]-2-yl)methyl)piperazin-1-yl)benzamide]
4 | < 10 nM |  |  | C[C@@H]1CN([C@H]2CC[C@H](CNc3ccc(S(=O)(=O)NC(=O)c4ccc(N5CCN(CC6=C(c7ccc(Cl)cc7)CC(C)(C)CC6)CC5)cc4Oc4cnc5[nH]ccc5c4)cc3[N+](=O)[O-])CC2)CCN1Cc1cc(Br)c2c(c1)C(=O)N(C1CCC(=O)NC1=O)C2 (stereo partly drawn) [BCL-03172, 2-((1H-pyrrolo[2,3-b]pyridin-5-yl)oxy)-N-((4-((((trans)-4-((3R)-4-((7-bromo-2-(2,6-dioxopiperidin-3-yl)-3-oxoisoindolin-5-yl)methyl)-3-methylpiperazin-1-yl)cyclohexyl)methyl)amino)-3-nitrophenyl)sulfonyl)-4-(4-((4′-chloro-5,5-dimethyl-3,4,5,6-tetrahydro-[1,1′-biphenyl]-2-yl)methyl)piperazin-1-yl)benzamide]
5 | < 10 nM |  |  | CC1(C)CCC(c2ccc(Cl)cc2)=C(CN2CCN(c3ccc(C(=O)NS(=O)(=O)c4ccc(N[C@H](CCN5CCN(Cc6cc(Br)c7c(c6)C(=O)N(C6CCC(=O)NC6=O)C7)CC5)CSc5ccccc5)c(S(=O)(=O)C(F)(F)F)c4)cc3)CC2)C1 (stereo partly drawn) [BCL-03178, N-((4-(((2R)-4-(4-((7-bromo-2-(2,6-dioxopiperidin-3-yl)-3-oxoisoindolin-5-yl)methyl)piperazin-1-yl)-1-(phenylthio)butan-2-yl)amino)-3-((trifluoromethyl)sulfonyl)phenyl)sulfonyl)-4-(4-((4′-chloro-4,4-dimethyl-3,4,5,6-tetrahydro-[1,1′-biphenyl]-2-yl)methyl)piperazin-1-yl)benzamide]
6 | < 10 nM | < 20 nM | < 20 nM | CC1(C)CCC(CN2CCN(c3ccc(C(=O)NS(=O)(=O)c4ccc(NC[C@H]5CC[C@H](N6CCN(Cc7ccc8c(c7)CN(C7CCC(=O)NC7=O)C8=O)CC6)CC5)c(S(=O)(=O)C(F)(F)F)c4)c(Oc4cnc5[nH]ccc5c4)c3)CC2)=C(c2ccc(Cl)cc2)C1 (stereo partly drawn) [BCL-03179, 2-((1H-pyrrolo[2,3-b]pyridin-5-yl)oxy)-4-(4-((4′-chloro-5,5-dimethyl-3,4,5,6-tetrahydro-[1,1′-biphenyl]-2-yl)methyl)piperazin-1-yl)-N-((4-((((trans)-4-(4-((2-(2,6-dioxopiperidin-3-yl)-1-oxoisoindolin-5-yl)methyl)piperazin-1-yl)cyclohexyl)methyl)amino)-3-((trifluoromethyl)sulfonyl)phenyl)sulfonyl)benzamide]
7 |  |  | < 20 nM | CC1(C)CCC(c2ccc(Cl)cc2)=C(CN2CCN(c3ccc(C(=O)NS(=O)(=O)c4ccc(NC[C@H]5CC[C@H](N6CCN(Cc7ccc8c(c7)CN(C7CCC(=O)NC7=O)C8=O)CC6)CC5)c(S(=O)(=O)C(F)(F)F)c4)cc3)CC2)C1 (stereo partly drawn) [BCL-03180, 4-(4-((4′-chloro-4,4-dimethyl-3,4,5,6-tetrahydro-[1,1′-biphenyl]-2-yl)methyl)piperazin-1-yl)-N-((4-((((trans)-4-(4-((2-(2,6-dioxopiperidin-3-yl)-1-oxoisoindolin-5-yl)methyl)piperazin-1-yl)cyclohexyl)methyl)amino)-3-((trifluoromethyl)sulfonyl)phenyl)sulfonyl)benzamide]
8 |  |  | < 20 nM | CC1(C)CCC(c2ccc(Cl)cc2)=C(CN2CCN(c3ccc(C(=O)NS(=O)(=O)c4ccc(NC[C@H]5CC[C@H](N6CCN(Cc7ccc8c(c7)CN(C7CCC(=O)NC7=O)C8=O)CC6)CC5)c([N+](=O)[O-])c4)cc3)CC2)C1 (stereo partly drawn) [BCL-03181, 4-(4-((4′-chloro-4,4-dimethyl-3,4,5,6-tetrahydro-[1,1′-biphenyl]-2-yl)methyl)piperazin-1-yl)-N-((4-((((trans)-4-(4-((2-(2,6-dioxopiperidin-3-yl)-1-oxoisoindolin-5-yl)methyl)piperazin-1-yl)cyclohexyl)methyl)amino)-3-nitrophenyl)sulfonyl)benzamide]
